This note sets out measurements from patent US10196393B2, “JAK inhibitors containing a 4-membered heterocyclic amide” (THERAVANCE BIOPHARMA R&D IP, LLC, priority 2017, dated 2019).

Experiment [1] addresses JAK2 (Homo sapiens (Human), UniProt O60674). Briefly: Biochemical JAK kinase assay (LanthaScreen), JAK2. The conditions noted are these: converted from pIC50 with Cheng-Prusoff equation. The procedure:
(§1) Assay 1: Biochemical JAK Kinase Assays
(§2) A panel of four LanthaScreen JAK biochemical assays (JAK1, 2, 3 and Tyk2) were carried in a common kinase reaction buffer (50 mM HEPES, pH 7.5, 0.01% Brij-35, 10 mM MgCl2, and 1 mM EGTA). Recombinant GST-tagged JAK enzymes and a GFP-tagged STAT1 peptide substrate were obtained from Life Technologies.
(§3) Serially diluted compounds were pre-incubated with each of the four JAK enzymes and the substrate in white 384-well microplates (Corning) at ambient temperature for 1 h. ATP was subsequently added to initiate the kinase reactions in 10 μL total volume, with 1% DMSO. […] The plates were allowed to incubate at ambient temperature for 1 h before being read on the EnVision reader (Perkin Elmer).
(§4) For dose-response analysis, percent inhibition data were plotted vs. compound concentrations, and IC50 values were determined from a 4-parameter robust fit model with the Prism software (GraphPad Software). Results were expressed as pIC50 (negative logarithm of IC50) and subsequently converted to pKi (negative logarithm of dissociation constant, Ki) using the Cheng-Prusoff equation.
A general note: In TR-FRET formats the signal depends on donor and acceptor labels being close together.

In experiment [2] the target is Tyk2 (Homo sapiens (Human), UniProt P29597). Briefly: Biochemical JAK kinase assay (LanthaScreen), Tyk2. The conditions noted are these: converted from pIC50 with Cheng-Prusoff equation. The protocol: as §1, §2, §3, §4
The test system of experiment [3] is IL-13 induced STAT6 phosphorylation in BEAS-2B human lung epithelial cells. Briefly: Cellular JAKI potency assay (AlphaScreen), BEAS-2B. It is filed as cell-based. The conditions noted are these: Homo sapiens, BEAS-2B cells. The procedure: Assay 2: Cellular JAKI Potency Assay
The AlphaScreen JAKI cellular potency assay was carried out by measuring interleukin-13 (IL-13, R&D Systems) induced STAT6 phosphorylation in BEAS-2B human lung epithelial cells (ATCC). The anti-STAT6 antibody (Cell Signaling Technologies) was conjugated to AlphaScreen acceptor beads (Perkin Elmer), while the anti-pSTAT6 (pTyr641) antibody (Cell Signaling Technologies) was biotinylated using EZ-Link Sulfo-NHS-Biotin (Thermo Scientific).
BEAS-2B cells were grown at 37° C. in a 5% CO2 humidified incubator in 50% DMEM/50% F-12 medium (Life Technologies) supplemented with 10% FBS (Hyclone), 100 U/mL penicillin, 100 μg/mL streptomycin (Life Technologies), and 2 mM GlutaMAX (Life Technologies). On day 1 of the assay, cells were seeded at a 7,500 cells/well density in white poly-D-lysine-coated 384-well plates (Corning) with 25 μL medium, and were allowed to adhere overnight in the incubator. On day 2 of the assay, the medium was removed and replaced with 12 μL of assay buffer (Hank's Balanced Salt Solution/HBSS, 25 mM HEPES, and 1 mg/ml bovine serum albumin/BSA) containing dose-responses of test compounds. Compounds were serially diluted in DMSO and then diluted another 1000-fold in media to bring the final DMSO concentration to 0.1%. Cells were incubated with test compounds at 37° C. for 1 h, and followed by the addition of 12 μl of pre-warmed IL-13 (80 ng/mL in assay buffer) for stimulation. After incubating at 37° C. for 30 min, the assay buffer (containing compound and IL-13) was removed, and 10 μL of cell lysis buffer (25 mM HEPES, 0.1% SDS, 1% NP-40, 5 mM MgCl2, 1.3 mM EDTA, 1 mM EGTA, and supplement with Complete Ultra mini protease inhibitors and PhosSTOP from Roche Diagnostics). The plates were shaken at ambient temperature for 30 min before the addition of detection reagents. A mixture of biotin-anti-pSTAT6 and anti-STAT6 conjugated acceptor beads was added first and incubated at ambient temperature for 2 h, followed by the addition of streptavidin conjugated donor beads (Perkin Elmer). After a minimum of 2 h incubation, the assay plates were read on the EnVision plate reader. AlphaScreen luminescence signals were recorded and utilized to calculate the percent inhibition values based on DMSO and background controls.
For dose-response analysis, percent inhibition data were plotted vs. compound concentrations, and IC50 values were determined from a 4-parameter robust fit model with the Prism software. Results may also be expressed as the negative logarithm of the IC50 value, pIC50.
Test compounds having a lower IC50 value or higher pIC50 value in this assay show greater inhibition of IL-13 induced STAT6 phosphorylation.

Experiment [4] has as its system IL-5 mediated eosinophil survival in human eosinophils. Briefly: IL-5 mediated eosinophil survival assay. The conditions noted are these: 72 h, read-out: pIC50, IL-5 mediated eosinophil survival (converted). It counts as cell-based. The protocol:
Assay 6: IL-5 Mediated Eosinophil Survival Assay
The potency of the test compound for IL-5 mediated eosinophil survival was measured in human eosinophils isolated from human whole blood (AllCells). Because IL-5 signals through JAK, this assay provides a measure of JAK cellular potency.
Human eosinophils were isolated from fresh human whole blood (AllCells) of healthy donors. Blood was mixed with 4.5% Dextran (Sigma-Aldrich) in a 0.9% sodium chloride solution (Sigma-Aldrich). Red blood cells were left to sediment for 35 minutes. The leukocyte rich upper layer was removed and layered over Ficoll-Paque (GE Healthcare) and centrifuged at 600 g for 30 minutes. The plasma and mononuclear cell layers were removed before the granulocyte layer was lysed with water to remove any contaminating red blood cells. […] Purity was analyzed using a LSRII flow cytometer (BD Biosciences). […]
After cytokine stimulation, cells were centrifuged at 300 g for 5 min and washed twice with cold DPBS (Life Technologies). To access viability and apoptosis, cells were incubated with Propidium Iodide (Thermo Fisher Scientific) and APC Annexin V (BD Biosciences) and analyzed using a LSRII flow cytometer (BD Biosciences). IC50 values were determined from analysis of the viability curves of percent cell viability vs compound concentration. Data are expressed as pIC50 (negative decadic logarithm IC50) values.

pIC50, pKi: −log10 of the molar value. Like-named read-outs stand apart in the source and are kept apart here.

Chain of JAK2 (O60674 whole entry): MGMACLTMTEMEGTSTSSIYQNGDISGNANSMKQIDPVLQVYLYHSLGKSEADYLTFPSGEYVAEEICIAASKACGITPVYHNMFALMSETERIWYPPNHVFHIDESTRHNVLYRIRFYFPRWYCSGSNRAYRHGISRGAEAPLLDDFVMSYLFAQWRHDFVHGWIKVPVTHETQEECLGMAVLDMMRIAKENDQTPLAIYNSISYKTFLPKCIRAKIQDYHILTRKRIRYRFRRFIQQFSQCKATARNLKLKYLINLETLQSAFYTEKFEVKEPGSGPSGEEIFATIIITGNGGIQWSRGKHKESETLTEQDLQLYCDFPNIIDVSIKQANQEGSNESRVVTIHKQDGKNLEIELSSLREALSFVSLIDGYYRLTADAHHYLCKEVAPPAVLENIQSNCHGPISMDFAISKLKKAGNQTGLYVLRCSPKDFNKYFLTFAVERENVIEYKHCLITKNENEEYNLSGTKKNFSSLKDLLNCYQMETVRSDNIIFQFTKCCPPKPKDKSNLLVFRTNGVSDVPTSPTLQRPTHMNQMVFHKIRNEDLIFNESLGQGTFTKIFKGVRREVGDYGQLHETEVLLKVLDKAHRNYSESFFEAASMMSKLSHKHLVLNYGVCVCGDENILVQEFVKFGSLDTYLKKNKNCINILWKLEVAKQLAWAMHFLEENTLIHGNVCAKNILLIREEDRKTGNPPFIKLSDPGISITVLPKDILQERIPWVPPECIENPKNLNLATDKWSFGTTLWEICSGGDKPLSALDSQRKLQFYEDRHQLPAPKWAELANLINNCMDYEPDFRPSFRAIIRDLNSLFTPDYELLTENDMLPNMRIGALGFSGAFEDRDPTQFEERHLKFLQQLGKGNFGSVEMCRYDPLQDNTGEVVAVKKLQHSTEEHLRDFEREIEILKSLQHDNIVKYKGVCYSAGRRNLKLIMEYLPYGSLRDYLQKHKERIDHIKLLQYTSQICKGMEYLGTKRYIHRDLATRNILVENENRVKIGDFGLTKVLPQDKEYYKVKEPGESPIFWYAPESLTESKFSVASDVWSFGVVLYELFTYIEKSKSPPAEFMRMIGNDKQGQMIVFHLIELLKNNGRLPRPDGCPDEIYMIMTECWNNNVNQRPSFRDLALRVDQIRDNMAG
Chain of Tyk2 (P29597 whole entry): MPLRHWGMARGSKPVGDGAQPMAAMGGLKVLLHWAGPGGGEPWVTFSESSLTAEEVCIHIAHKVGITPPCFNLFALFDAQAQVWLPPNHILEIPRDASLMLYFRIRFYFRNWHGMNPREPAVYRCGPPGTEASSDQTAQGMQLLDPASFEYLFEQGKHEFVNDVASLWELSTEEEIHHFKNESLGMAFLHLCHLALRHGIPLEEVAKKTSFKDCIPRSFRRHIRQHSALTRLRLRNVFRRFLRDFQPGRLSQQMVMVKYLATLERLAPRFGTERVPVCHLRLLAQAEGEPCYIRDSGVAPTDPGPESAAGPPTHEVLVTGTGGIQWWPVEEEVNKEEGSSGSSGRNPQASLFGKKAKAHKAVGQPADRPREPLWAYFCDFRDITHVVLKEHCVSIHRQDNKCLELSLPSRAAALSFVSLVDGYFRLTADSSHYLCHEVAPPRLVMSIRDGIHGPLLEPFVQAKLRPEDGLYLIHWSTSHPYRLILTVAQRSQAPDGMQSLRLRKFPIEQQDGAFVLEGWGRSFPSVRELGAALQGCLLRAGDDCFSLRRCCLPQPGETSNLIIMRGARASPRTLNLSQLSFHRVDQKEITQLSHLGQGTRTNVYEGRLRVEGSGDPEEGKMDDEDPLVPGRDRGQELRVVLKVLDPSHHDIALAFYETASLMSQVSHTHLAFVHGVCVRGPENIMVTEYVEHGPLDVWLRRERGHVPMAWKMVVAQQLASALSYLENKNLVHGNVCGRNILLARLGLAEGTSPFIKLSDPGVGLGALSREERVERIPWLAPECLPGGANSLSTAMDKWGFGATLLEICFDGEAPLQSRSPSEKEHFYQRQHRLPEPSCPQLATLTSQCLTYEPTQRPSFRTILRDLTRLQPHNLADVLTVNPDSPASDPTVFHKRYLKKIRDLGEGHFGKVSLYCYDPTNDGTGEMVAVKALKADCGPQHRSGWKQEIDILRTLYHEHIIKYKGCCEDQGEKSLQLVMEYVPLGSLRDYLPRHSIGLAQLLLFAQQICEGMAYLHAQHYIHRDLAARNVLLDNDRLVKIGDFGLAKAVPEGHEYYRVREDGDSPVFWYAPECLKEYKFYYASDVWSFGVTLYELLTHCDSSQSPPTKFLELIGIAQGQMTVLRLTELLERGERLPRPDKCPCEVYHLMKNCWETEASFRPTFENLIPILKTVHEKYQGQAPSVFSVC

`CCc1cc(O)c(F)cc1-c1ccc2c(-c3nc4c([nH]3)CN(C(C)C)[C@H](C(=O)N3CC(N(C)C)C3)C4)n[nH]c2c1` [Example 2, (S)-(3-(dimethylamino)azetidin-1-yl)(2-(6-(2-ethyl-5-fluoro-4-hydroxyphenyl)-1H-indazol-3-yl)-5-isopropyl-4,5,6,7-tetrahydro-3H-imidazo[4,5-c]pyridin-6-yl)methanone]: the pKi in experiment [1] is 10.70; in experiment [2], 9.49. In experiment [3], this molecule showed a negative logarithm of the IC50 (pIC50) of 8.39. Also, the IC50 is 25.1 nM in experiment [4] (in the presence of 10 pg/ml IL-5, 72 hours) and 631 nM in experiment [4] (in the presence of 1 ng/ml IL-5, 72 hours).

One may read the pKi as the negative decadic logarithm of the Ki, by convention in mol/L. A high value points to a small Ki. As a reminder, the pIC50 is the IC50 on a negative log10 scale, so that one unit is a factor of ten. The low end stands for a large IC50, the high end for a small IC50.
